Assay results reported in patent US12180223B2 (Boehringer Ingelheim International GmbH, priority 2021, dated 2024).

Tests used:
[1] = Assay B: Microsomal clearance; format: in vitro ADME, human; details: compounds of the invention; pooled liver microsomes 1 mg/ml, test compound 1 μM, NADPH, 37° C.
Procedure: Evaluation of Microsomal Clearance Assay B: Microsomal Clearance:
The metabolic degradation of the test compound is assayed at 37° C. with pooled liver microsomes. The final incubation volume of 100 μl per time point contains TRIS buffer pH 7.6 at RT (0.1 M), magnesium chloride (5 mM), microsomal protein (1 mg/ml) and the test compound at a final concentration of 1 μM.
Following a short preincubation period at 37° C., the reactions are initiated by addition of beta-nicotinamide adenine dinucleotide phosphate, reduced form (NADPH, 1 mM) and terminated by transferring an aliquot into solvent after different time points (0, 5, 15, 30, 60 min). Additionally, the NADPH-independent degradation is monitored in incubations without NADPH, terminated at the last time point. The [%] remaining test compound after NADPH independent incubation is reflected by the parameter c(control) (metabolic stability). The quenched incubations are pelleted by centrifugation (10000 g, 5 min). An aliquot of the supernatant is assayed by LC-MS/MS for the amount of parent compound. The half-life (t½ INVITRO) is determined by the slope of the semilogarithmic plot of the concentration-time profile.

[2] = Assay C: Hepatocyte clearance; format: in vitro ADME, human; details: compounds of the invention; hepatocyte suspension, 5% species serum, test compound 1 μM, six hours
Procedure: Evaluation of Hepatocyte Clearance Assay C: Hepatocyte Clearance
The metabolic degradation of the test compound is assayed in a hepatocyte suspension. Hepatocytes (cryopreserved) are incubated in Dulbecco's modified eagle medium (supplemented with 3.5 μg glucagon/500 mL, 2.5 mg insulin/500 mL and 3.75 mg/500 mL hydrocortisone) containing 5% species serum.
The cells are incubated for six hours (incubator, orbital shaker) and samples (25 μl) are taken at 0, 0.5, 1, 2, 4 and 6 hours. Samples are transferred into acetonitrile and pelleted by centrifugation (5 min). The supernatant is transferred to a new 96-deepwell plate, evaporated under nitrogen and resuspended.
Decline of parent compound is analyzed by HPLC-MS/MS
CLint is calculated as follows CL_[…]=Dose/AUC=(C0/CD)/(AUD+clast/k)×1000/60. C0: initial concentration in the incubation [μM], CD: cell density of vital cells [10e6 cells/mL], AUD: area under the data [μM×h], clast: concentration of last data point [μM], k: slope of the regression line for parent decline [h−1].
The calculated in vitro hepatic intrinsic clearance can be scaled up to the intrinsic in vivo hepatic Clearance and used to predict hepatic in vivo blood clearance (CL) by the use of a liver model (well stirred model).

human TRPA1 ion channel = target: T1, human TRPA1 ion channel (Homo sapiens, UniProt O75762); test: Assay A: TRPA1 assay (FLIPR calcium, AITC agonism, HEK293 over-expressing human TRPA1); format: cell-based; details: read-out: hTRPA1 IC50
T1 construct: host or cells: HEK293
T1 sequence (O75762 whole entry): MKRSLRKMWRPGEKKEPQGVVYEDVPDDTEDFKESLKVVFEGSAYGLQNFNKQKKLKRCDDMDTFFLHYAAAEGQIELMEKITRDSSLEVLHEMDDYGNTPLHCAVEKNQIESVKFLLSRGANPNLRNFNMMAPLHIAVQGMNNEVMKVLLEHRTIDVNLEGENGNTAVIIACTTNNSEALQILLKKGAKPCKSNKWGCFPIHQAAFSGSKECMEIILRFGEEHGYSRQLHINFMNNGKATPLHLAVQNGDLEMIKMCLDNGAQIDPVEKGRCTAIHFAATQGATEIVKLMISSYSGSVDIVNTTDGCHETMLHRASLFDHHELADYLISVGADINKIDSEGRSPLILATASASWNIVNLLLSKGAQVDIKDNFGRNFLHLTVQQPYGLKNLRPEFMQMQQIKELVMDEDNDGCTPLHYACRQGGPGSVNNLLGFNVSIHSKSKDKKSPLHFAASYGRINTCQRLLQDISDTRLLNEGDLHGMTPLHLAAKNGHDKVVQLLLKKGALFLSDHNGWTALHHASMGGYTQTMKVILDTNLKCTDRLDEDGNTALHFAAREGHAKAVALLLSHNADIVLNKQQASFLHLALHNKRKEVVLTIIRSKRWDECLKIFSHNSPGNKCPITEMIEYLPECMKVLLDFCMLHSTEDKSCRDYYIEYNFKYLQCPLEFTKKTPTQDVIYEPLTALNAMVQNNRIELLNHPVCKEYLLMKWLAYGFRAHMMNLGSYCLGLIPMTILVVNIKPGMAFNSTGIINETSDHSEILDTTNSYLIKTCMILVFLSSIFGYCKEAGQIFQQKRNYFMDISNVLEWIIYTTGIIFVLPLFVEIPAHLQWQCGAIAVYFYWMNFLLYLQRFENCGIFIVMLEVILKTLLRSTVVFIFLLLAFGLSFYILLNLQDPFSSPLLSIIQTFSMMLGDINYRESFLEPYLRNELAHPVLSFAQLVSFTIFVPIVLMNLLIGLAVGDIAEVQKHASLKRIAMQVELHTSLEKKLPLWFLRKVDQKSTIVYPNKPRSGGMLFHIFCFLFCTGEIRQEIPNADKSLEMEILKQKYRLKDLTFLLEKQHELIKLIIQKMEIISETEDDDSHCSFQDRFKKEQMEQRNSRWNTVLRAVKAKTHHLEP
Procedure: A human HEK293 cell line over-expressing the human TRPA1 ion channel (Perkin Elmer, Product No. AX-004-PCL) is used as a test system for compound efficacy and potency. Compound activity is determined by measuring the effect of compounds on intracellular calcium concentration induced by AITC (Allylisothiocyanate) agonism in a FLIPRtetra system (Molecular Devices).
The cells are obtained as frozen cells in cryo-vials and stored until use at −150° C. Cells are grown in culture medium (MEM/EBSS medium with 10% FCS and 0.4 mg/ML Geneticin). […] For sub-culturing cells are detached from flasks by Versene. At the day before the assay, cells are detached, washed twice with medium (MEM/EBSS medium with 10% FCS) and 20000 cells in 20 μl/well are seeded to Poly D-Lysin biocoated 384-well plates (black, clear bottom, Cat. 356697) from Corning. Plates are incubated for 24 hours at 37° C./5% CO2 before use in the assay.
The test compounds are dissolved in 100% DMSO at a concentration of 10 mM and in a first step diluted in DMSO to a concentration of 5 mM, followed by serial dilution steps in 100% DMSO. Dilution factor and number of dilution steps may vary according to needs. Typically 8 different concentrations by 1:5 dilutions are prepared, further intermediate dilutions (1:20) of the substances are carried out with HBSS/HEPES buffer (1×HEPES, Cat. 14065 from Gibco, 20 mM HEPES, Cat. 83264 from SIGMA, 0.1% BSA Cat. 11926 from Invitrogen, pH 7.4
At the assay day cells are washed 3× with assay puffer, 20 μL buffer remaining in the wells after washing. 10 μL Ca6 kit (Cat. R8191 MolecularDevices) loading buffer in HBSS/HEPES is added to the cells and the plates are incubated with lid for 120 minutes at 37°/5% CO2. 10 μL of compound or controls in HBSS/HEPES buffer/5% DMSO from the intermediate dilution plate are carefully added to the wells. […] Finally 10 μL of the agonist AITC 50 μM dissolved in HBSS/HEPES buffer/0.05% DMSO (final concentration 10 μM) is added to the wells followed by an additional read on the FLIPRtetra device for 10 minutes. The area under the signal curve (AUC) after AITC addition is used for IC50/% inhibition calculations
Data Evaluation and Calculation:
Each assay microtiter plate contains wells with vehicle (1% DMSO) controls instead of compound as controls for AITC induced luminescence (100% CTL; high controls) and wells with vehicle controls without AITC as controls for non-specific changes in luminescence (0% CTL; low controls).
The analysis of the data is performed by the calculation of the area under signal curve of the individual wells. Based on this values the % value for the measurement of each substance concentration is calculated (AUC(sample)−AUC(low))*100/(AUC(high)−AUC(low)) using MegaLab software (in house development). The IC50 values are calculated from the % control values using MegaLab software. Calculation: [y=(a−d)/(1+(x/c)^b)+d], a=low value, d=high value; x=conc M; c=IC50 M; b=hill; y=% ctrl

human LM [1]	human Hepatocytes [2]	IC50 (human TRPA1 ion channel)	Compound
<23 % Qh	19 % Qh	87 nM	COc1ccc([C@@H](O)Cc2noc(Cn3cnc4scc(C(N)=O)c4c3=O)n2)cc1 [Example 10]
	26 % Qh	22 nM	Cc1ccc([C@@H](O)Cc2noc(Cn3cnc4scc(C(N)=O)c4c3=O)n2)cc1 [Example 7]
39 % Qh		9 nM	NC(=O)c1csc2ncn(Cc3nc(C[C@H](O)c4cc5ccccc5s4)no3)c(=O)c12 [Example 3]
23 % Qh	22 % Qh	12 nM	NC(=O)c1csc2ncn(Cc3nc(C[C@H](O)c4cc5cc(F)ccc5o4)no3)c(=O)c12 [Example 6]
<23 % Qh	22 % Qh	29 nM	NC(=O)c1csc2ncn(Cc3nc(C[C@H](O)c4ccc(Cl)cc4)no3)c(=O)c12 [Example 1, 3-({3-[(2S)-2-(4-chlorophenyl)-2-hydroxyethyl]-1,2,4-oxadiazol-5-yl}methyl)-4-oxo-3H,4H-thieno[2,3-d]pyrimidine-5-carboxamide]
34 % Qh	34 % Qh	9 nM	NC(=O)c1csc2ncn(Cc3nc(C[C@H](O)c4cc5cc(Cl)ccc5o4)no3)c(=O)c12 [Example 4]
<23 % Qh	13 % Qh	57 nM	NC(=O)c1csc2ncn(Cc3nc(C[C@H](O)c4ccc(F)cc4)no3)c(=O)c12 [Example 8]
43 % Qh	36 % Qh	7 nM	NC(=O)c1csc2ncn(Cc3nc(C[C@H](O)c4cc5ccc(F)cc5s4)no3)c(=O)c12 [Example 2]
<23 % Qh	24 % Qh	12 nM	NC(=O)c1csc2ncn(Cc3nc(C[C@H](O)c4ccc(I)cc4)no3)c(=O)c12 [Example 5]
27 % Qh	61 % Qh	77 nM	NC(=O)c1csc2ncn(Cc3nc(C[C@H](O)c4ccc(Cl)s4)no3)c(=O)c12 [Example 9]
